Assay results as given in PubChem BioAssay (NCI).
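GI50 is the concentration that inhibits growth by half. Definition used: TGI = concentration required for complete inhibition of growth.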

Experiments:
Assay in all cases: DTP human tumour cell line panel, 384-well format
SF-539 CNS = test system: SF-539 CNS
SF-295 CNS = test system: SF-295 CNS
SNB-75 CNS = test system: SNB-75 CNS
EKVX NSCLC = test system: EKVX NSCLC
HCT-15 colon = test system: HCT-15 colon
SW-620 colon = test system: SW-620 colon
TK-10 renal = test system: TK-10 renal
UACC-257 melanoma = test system: UACC-257 melanoma
OVCAR-3 ovarian = test system: OVCAR-3 ovarian
PC-3 prostate = test system: PC-3 prostate
KM12 colon = test system: KM12 colon
ACHN renal = test system: ACHN renal
DU-145 prostate = test system: DU-145 prostate
A498 renal = test system: A498 renal
HS 578T breast = test system: HS 578T breast
NCI-H23 lung = test system: NCI-H23 lung
HL-60(TB) leukemia = test system: HL-60(TB) leukemia
SR leukemia = test system: SR leukemia
NCI/ADR-RES ovarian = test system: NCI/ADR-RES ovarian
MDA-MB-435 melanoma = test system: MDA-MB-435 melanoma
IGROV1 ovarian = test system: IGROV1 ovarian
MALME-3M melanoma = test system: MALME-3M melanoma
SN12C renal = test system: SN12C renal
M14 melanoma = test system: M14 melanoma
NCI-H522 lung = test system: NCI-H522 lung
UO-31 renal = test system: UO-31 renal
K-562 leukemia = test system: K-562 leukemia
RXF 393 renal = test system: RXF 393 renal
A549 NSCLC = test system: A549 NSCLC
CAKI-1 renal = test system: CAKI-1 renal
SF-268 CNS = test system: SF-268 CNS
MDA-MB-468 breast = test system: MDA-MB-468 breast
MDA-MB-231 breast = test system: MDA-MB-231 breast
OVCAR-4 ovarian = test system: OVCAR-4 ovarian
COLO 205 colon = test system: COLO 205 colon
NCI-H226 lung = test system: NCI-H226 lung
SK-MEL-5 melanoma = test system: SK-MEL-5 melanoma
NCI-H460 NSCLC = test system: NCI-H460 NSCLC
RPMI-8226 leukemia = test system: RPMI-8226 leukemia
MCF7 breast = test system: MCF7 breast
SK-OV-3 ovarian = test system: SK-OV-3 ovarian
T-47D breast = test system: T-47D breast
BT-549 breast = test system: BT-549 breast
786-0 renal = test system: 786-0 renal
UACC-62 melanoma = test system: UACC-62 melanoma
NCI-H322M lung = test system: NCI-H322M lung
LOX IMVI melanoma = test system: LOX IMVI melanoma
HCC-2998 colon = test system: HCC-2998 colon
OVCAR-8 ovarian = test system: OVCAR-8 ovarian
U251 glioblastoma = test system: U251 glioblastoma
HT29 colon = test system: HT29 colon
SK-MEL-28 melanoma = test system: SK-MEL-28 melanoma
SNB-19 CNS = test system: SNB-19 CNS
CCRF-CEM leukemia = test system: CCRF-CEM leukemia
HOP-62 NSCLC = test system: HOP-62 NSCLC
HOP-92 NSCLC = test system: HOP-92 NSCLC
MOLT-4 leukemia = test system: MOLT-4 leukemia
HCT-116 colon = test system: HCT-116 colon

Cc1nc(-c2cn3c(n2)-c2ccc(-c4cnn(C(C)(C)C(N)=O)c4)cc2OCC3)n(C(C)C)n1
GI50 (SF-539 CNS): 1.09 µM | TGI (SF-539 CNS): 20.2 µM | GI50 (SF-295 CNS): 0.95 µM | TGI (SF-295 CNS): 9 µM | GI50 (SNB-75 CNS): 0.221 µM | TGI (SNB-75 CNS): 15.3 µM | GI50 (EKVX NSCLC): 0.756 µM | TGI (EKVX NSCLC): 15.4 µM | GI50 (HCT-15 colon): 1.59 µM | TGI (HCT-15 colon): 23.6 µM | GI50 (SW-620 colon): 12.5 µM | TGI (SW-620 colon): > 100 µM | GI50 (TK-10 renal): 0.387 µM | TGI (TK-10 renal): 19.2 µM | GI50 (UACC-257 melanoma): 7.34 µM | TGI (UACC-257 melanoma): 40.7 µM | GI50 (OVCAR-3 ovarian): 0.398 µM | TGI (OVCAR-3 ovarian): 9.21 µM | GI50 (PC-3 prostate): 0.396 µM | TGI (PC-3 prostate): 12.2 µM | GI50 (KM12 colon): 3.72 µM | TGI (KM12 colon): 17 µM | GI50 (ACHN renal): 1.36 µM | TGI (ACHN renal): > 100 µM | GI50 (DU-145 prostate): 2.16 µM | TGI (DU-145 prostate): 17.8 µM | GI50 (A498 renal): 1.96 µM | TGI (A498 renal): 12.4 µM | GI50 (HS 578T breast): 0.567 µM | TGI (HS 578T breast): 12.5 µM | GI50 (NCI-H23 lung): 11.3 µM | TGI (NCI-H23 lung): 50.5 µM | GI50 (HL-60(TB) leukemia): < 0.01 µM | TGI (HL-60(TB) leukemia): 0.115 µM | GI50 (SR leukemia): 0.785 µM | TGI (SR leukemia): 2.53 µM | GI50 (NCI/ADR-RES ovarian): 13.2 µM | TGI (NCI/ADR-RES ovarian): 52.7 µM | GI50 (MDA-MB-435 melanoma): 6.33 µM | TGI (MDA-MB-435 melanoma): 53.2 µM | GI50 (IGROV1 ovarian): 0.0125 µM | TGI (IGROV1 ovarian): 0.0541 µM | GI50 (MALME-3M melanoma): 0.164 µM | TGI (MALME-3M melanoma): 4.21 µM | GI50 (SN12C renal): 0.27 µM | TGI (SN12C renal): > 100 µM | GI50 (M14 melanoma): 7.41 µM | TGI (M14 melanoma): 32.1 µM | GI50 (NCI-H522 lung): 3.56 µM | TGI (NCI-H522 lung): 27.3 µM | GI50 (UO-31 renal): 0.848 µM | TGI (UO-31 renal): > 100 µM | GI50 (K-562 leukemia): 12.9 µM | TGI (K-562 leukemia): 84.8 µM | GI50 (RXF 393 renal): 1.99 µM | TGI (RXF 393 renal): 11.3 µM | GI50 (A549 NSCLC): 1.43 µM | TGI (A549 NSCLC): 14.7 µM | GI50 (CAKI-1 renal): 0.342 µM | TGI (CAKI-1 renal): 31.8 µM | GI50 (SF-268 CNS): 3.31 µM | TGI (SF-268 CNS): 29.5 µM | GI50 (MDA-MB-468 breast): 0.147 µM | TGI (MDA-MB-468 breast): 1.34 µM | GI50 (MDA-MB-231 breast): 5.79 µM | TGI (MDA-MB-231 breast): > 100 µM | GI50 (OVCAR-4 ovarian): 15.2 µM | TGI (OVCAR-4 ovarian): 93.7 µM | GI50 (COLO 205 colon): 0.396 µM | TGI (COLO 205 colon): 25.4 µM | GI50 (NCI-H226 lung): 2.82 µM | TGI (NCI-H226 lung): 41 µM | GI50 (SK-MEL-5 melanoma): 1.26 µM | TGI (SK-MEL-5 melanoma): 9.2 µM | GI50 (NCI-H460 NSCLC): 0.134 µM | TGI (NCI-H460 NSCLC): 11.4 µM | GI50 (RPMI-8226 leukemia): 3.21 µM | TGI (RPMI-8226 leukemia): 13.3 µM | GI50 (MCF7 breast): 0.0152 µM | TGI (MCF7 breast): 15.1 µM | GI50 (SK-OV-3 ovarian): 0.0291 µM | TGI (SK-OV-3 ovarian): 1.95 µM | GI50 (T-47D breast): < 0.01 µM | TGI (T-47D breast): 0.0399 µM | GI50 (BT-549 breast): 1.67 µM | TGI (BT-549 breast): 19.9 µM | GI50 ([…]-0 renal): 2.6 µM | TGI (786-0 renal): 87.3 µM | GI50 (UACC-62 melanoma): 0.71 µM | TGI (UACC-62 melanoma): 7.5 µM | GI50 (NCI-H322M lung): 0.312 µM | TGI (NCI-H322M lung): 14.2 µM | GI50 (LOX IMVI melanoma): 1.99 µM | TGI (LOX IMVI melanoma): 15.4 µM | GI50 (HCC-2998 colon): 0.831 µM | TGI (HCC-2998 colon): 14 µM | GI50 (OVCAR-8 ovarian): 3.01 µM | TGI (OVCAR-8 ovarian): 84 µM | GI50 (U251 glioblastoma): 3.56 µM | TGI (U251 glioblastoma): > 100 µM | GI50 (HT29 colon): 0.085 µM | TGI (HT29 colon): 16.6 µM | GI50 (SK-MEL-28 melanoma): 0.484 µM | TGI (SK-MEL-28 melanoma): > 100 µM | GI50 (SNB-19 CNS): 13.8 µM | TGI (SNB-19 CNS): > 100 µM | GI50 (CCRF-CEM leukemia): 0.343 µM | TGI (CCRF-CEM leukemia): 13.7 µM | GI50 (HOP-62 NSCLC): 5.99 µM | TGI (HOP-62 NSCLC): 91.3 µM | GI50 (HOP-92 NSCLC): 0.226 µM | TGI (HOP-92 NSCLC): 29.9 µM | GI50 (MOLT-4 leukemia): 0.0746 µM | TGI (MOLT-4 leukemia): 1.12 µM | GI50 (HCT-116 colon): 1.92 µM | TGI (HCT-116 colon): 18.3 µM
